The values that follow come from publication PMC11995724, “Antibiotic target discovery by integrated phenotypic and activity-based profiling of electrophilic fragments” (Cell chemical biology, 2025).

Structures can show the parent of a compound that is named as a salt.

A short description of this series: in vitro. The conditions noted are these: human, hek293t cells.
By viability is commonly meant a read-out of living cells in per cent, often relative to untreated cells. As to `CC(Cl)C(=O)Nc1c(Cl)cc(Cl)cc1Cl` (stereo not shown) [6-K09, 2-chloro-N-(2,4,6-trichlorophenyl)propanamide], the viability at 48 h, 25 µM is 115%. Consider `O=C(CCl)NCc1ccccc1C(F)(F)F` [6-K10, 2-chloro-N-{[2-(trifluoromethyl)phenyl]methyl}acetamide], for which the viability at 48 h, 25 µM came out at 2.67%. Under `CCC(C)c1ccccc1NC(=O)CCl` (stereo not shown) [6-K11, N-[2-(butan-2-yl)phenyl]-2-chloroacetamide] stands 0.743%; under `COc1cc2c(cc1OC)C(c1ccccc1)N(C(=O)CCl)CC2` (stereo not shown) [6-K12, 2-chloro-1-(6,7-dimethoxy-1-phenyl-1,2,3,4-tetrahydroisoquinolin-2-yl)ethan-1-one], 0.105%. In the case of `O=C(CCl)Nc1ccc(Cl)c(S(=O)(=O)N2CCOCC2)c1` [6-K13, 2-chloro-N-[4-chloro-3-(morpholine-4-sulfonyl)phenyl]acetamide] it was 0.541%. On to `O=C(CCl)NCc1ccccc1CN1CCCC1=O` [6-K14, 2-chloro-N-({2-[(2-oxopyrrolidin-1-yl)methyl]phenyl}methyl)acetamide], for which the viability at 48 h, 25 µM came out at 2.03%.

Take `CC(Cl)C(=O)Nc1ccc(F)cc1` (stereo not shown) [6-K15, 2-chloro-N-(4-fluorophenyl)propanamide]: the viability at 48 h, 25 µM worked out at 113%. In the case of `CC(C#N)CSc1ccccc1NC(=O)CCl` (stereo not shown) [6-K16, 2-chloro-N-{2-[(2-cyano-2-methylethyl)sulfanyl]phenyl}acetamide] it was 1.3%; in that of `O=C(CCl)Nc1nnc(-c2ccccc2Cl)s1` [6-K17, 2-chloro-N-[5-(2-chlorophenyl)-1,3,4-thiadiazol-2-yl]acetamide], 0.539%. Under `CC(C)c1ccc(CN(C(=O)CCl)C2CC2)cc1` [6-K18, 2-chloro-N-cyclopropyl-N-{[4-(propan-2-yl)phenyl]methyl}acetamide] stands 1.65%; under `Cc1cc(CO[C@H]2CC[C@H](NC(=O)CCl)CC2)on1` [6-K19, 2-chloro-N-[(1r,4r)-4-[(3-methyl-1,2-oxazol-5-yl)methoxy]cyclohexyl]acetamide], 88.1%; under `O=C(CCl)NCCc1nc2ccccc2s1` [6-K20, N-[2-(1,3-benzothiazol-2-yl)ethyl]-2-chloroacetamide], 98%.

As to `CC(Cl)C(=O)NC1CC=CCC1` (stereo not shown) [6-K21, 2-chloro-N-(cyclohex-3-en-1-yl)propanamide], the viability at 48 h, 25 µM was found to be 114%. As for `CC(=O)c1cccc(NC(=O)C(C)Cl)c1` (stereo not shown) [6-K22, N-(3-acetylphenyl)-2-chloropropanamide], the viability at 48 h, 25 µM is 105%.

Turning to `CC(Cl)C(=O)NC1CCCN(S(=O)(=O)N2CCOCC2)C1` (stereo not shown) [6-L03, 2-chloro-N-[1-(morpholine-4-sulfonyl)piperidin-3-yl]propanamide], the viability at 48 h, 25 µM was determined as 111%. Under `O=C(CCl)N1N=C(c2cccs2)CC1c1cccc(O)c1` (stereo not shown) [6-L04, 2-chloro-1-[5-(3-hydroxyphenyl)-3-(thiophen-2-yl)-4,5-dihydro-1H-pyrazol-1-yl]ethan-1-one] stands 0.561%; under `CC(Cl)C(=O)N1CCOC(c2ccnc(N(C)C)n2)C1` (stereo not shown) [6-L05, 2-chloro-1-{2-[2-(dimethylamino)pyrimidin-4-yl]morpholin-4-yl}propan-1-one], 99.1%; under `CCc1ccccc1NC(=O)CN(C)C(=O)CCl` [6-L06, 2-chloro-N-{[(2-ethylphenyl)carbamoyl]methyl}-N-methylacetamide], 0.728%. In the case of `CC(NC(=O)CCl)c1nc(Cc2ccccc2)no1` (stereo not shown) [6-L07, N-[1-(3-benzyl-1,2,4-oxadiazol-5-yl)ethyl]-2-chloroacetamide] it was 1.28%; in that of `Cc1ccccc1CN1CCC(NC(=O)CCl)CC1` [6-L08, 2-chloro-N-{1-[(2-methylphenyl)methyl]piperidin-4-yl}acetamide hydrochloride], 113%; in that of `O=C(CCl)N(Cc1cnn(-c2ccccc2)c1)C1CC1` [6-L09, 2-chloro-N-cyclopropyl-N-[(1-phenyl-1H-pyrazol-4-yl)methyl]acetamide], 1.4%. Under `CC(Cl)C(=O)Nc1nc(-c2ccccc2)cs1` (stereo not shown) [6-L10, 2-chloro-N-(4-phenyl-1,3-thiazol-2-yl)propanamide] stands 101%. With `O=C(CCl)N(Cc1ccc2c(c1)CCO2)C1CCCC1` [6-L11, 2-chloro-N-cyclopentyl-N-[(2,3-dihydro-1-benzofuran-5-yl)methyl]acetamide], the viability at 48 h, 25 µM amounted to 0.358%. Under `COc1cc(S(=O)(=O)N2CCOCC2)ccc1NC(=O)CCl` [6-L12, 2-chloro-N-[2-methoxy-4-(morpholine-4-sulfonyl)phenyl]acetamide] stands 0.942%.

Regarding `CC(Cl)C(=O)N1C2CCC1CC(N(C)C(=O)c1ccccc1)C2` (stereo not shown) [6-L14, N-[8-(2-chloropropanoyl)-8-azabicyclo[3.2.1]octan-3-yl]-N-methylbenzamide], the viability at 48 h, 25 µM worked out at 101%. For the molecule `CC(Cl)C(=O)NC1CC(C)N(c2ccccc2)C1` (stereo not shown) [6-L15, 2-chloro-N-(5-methyl-1-phenylpyrrolidin-3-yl)propanamide], the viability at 48 h, 25 µM was 99.3%. In the case of `CC(Cl)C(=O)N(C)C1CCCc2c1cnn2C` (stereo not shown) [6-L16, 2-chloro-N-methyl-N-(1-methyl-4,5,6,7-tetrahydro-1H-indazol-4-yl)propanamide] it was 112%; in that of `CC(Cl)C(=O)N(C(C)CS(C)(=O)=O)C1CC1` (stereo not shown) [6-L17, 2-chloro-N-cyclopropyl-N-(1-methanesulfonylpropan-2-yl)propanamide], 112%; in that of `CC1CN(c2cccc(CN(C)C(=O)C(C)Cl)c2)S(=O)(=O)C1` (stereo not shown) [6-L18, 2-chloro-N-methyl-N-{[3-(4-methyl-1,1-dioxo-1lambda6,2-thiazolidin-2-yl)phenyl]methyl}propanamide], 112%. In the case of `COCC(NC(=O)C(C)Cl)c1cccc(C#N)c1` (stereo not shown) [6-L19, 2-chloro-N-[1-(3-cyanophenyl)-2-methoxyethyl]propanamide] it was 107%. As to `CC(Cl)C(=O)NC1CS(=O)(=O)Cc2ccccc21` (stereo not shown) [6-L20, 2-chloro-N-(2,2-dioxo-3,4-dihydro-1H-2lambda6-benzothiopyran-4-yl)propanamide], the viability at 48 h, 25 µM is 93.5%.

Take `CC(Cl)C(=O)NC(c1cccs1)c1cccs1` (stereo not shown) [6-L21, N-[bis(thiophen-2-yl)methyl]-2-chloropropanamide]: the viability at 48 h, 25 µM came to 100%.

As for `CCn1cc(CN(C)C(=O)C(C)Cl)nn1` (stereo not shown) [6-L22, 2-chloro-N-[(1-ethyl-1H-1,2,3-triazol-4-yl)methyl]-N-methylpropanamide], the viability at 48 h, 25 µM was found to be 94.7%. Under `COc1ccc(C2CCCN2C(=O)CCl)cc1OC` (stereo not shown) [6-M03, 2-chloro-1-[2-(3,4-dimethoxyphenyl)pyrrolidin-1-yl]ethan-1-one] stands 0.75%.

On to `O=C(CCl)Nc1ccc(CN2CCCCC2)cc1` [6-M04, 2-chloro-N-{4-[(piperidin-1-yl)methyl]phenyl}acetamide hydrochloride], for which the viability at 48 h, 25 µM was 0.0889%. In the case of `CN(CC(=O)Nc1c(Cl)cccc1Cl)C(=O)CCl` [6-M05, 2-chloro-N-{[(2,6-dichlorophenyl)carbamoyl]methyl}-N-methylacetamide] it was 2.21%.

As to `CNC(=O)C(NC(=O)CCl)c1ccccc1` (stereo not shown) [6-M06, 2-(2-chloroacetamido)-N-methyl-2-phenylacetamide], the viability at 48 h, 25 µM turned out to be 0.807%. Under `CNS(=O)(=O)c1cc(NC(=O)CCl)ccc1C` [6-M07, 2-chloro-N-[4-methyl-3-(methylsulfamoyl)phenyl]acetamide] stands 0.859%; under `O=C(CCl)NC1CCS(=O)(=O)CC1` [6-M08, 2-chloro-N-(1,1-dioxo-1lambda6-thian-4-yl)acetamide], 53.7%. In the case of `COc1cc(C)c(C(C)NC(=O)CCl)cc1OC` (stereo not shown) [6-M09, 2-chloro-N-[1-(4,5-dimethoxy-2-methylphenyl)ethyl]acetamide] it was 3.89%; in that of `CCOc1ccccc1NC(=O)C(C)Cl` (stereo not shown) [6-M10, 2-chloro-N-(2-ethoxyphenyl)propanamide], 93.2%; in that of `CCN(Cc1ccc(Cl)s1)C(=O)CCl` [6-M11, 2-chloro-N-[(5-chlorothiophen-2-yl)methyl]-N-ethylacetamide], 0.655%.

`O=C(CCl)NC(c1ccccc1)c1ccccc1` [6-M12, 2-chloro-N-(diphenylmethyl)acetamide]: the viability at 48 h, 25 µM is 0.81%.

For the molecule `CC(Cl)C(=O)Nc1ccc(S(=O)(=O)N2CCCC2)cc1` (stereo not shown) [6-M13, 2-chloro-N-[4-(pyrrolidine-1-sulfonyl)phenyl]propanamide], the viability at 48 h, 25 µM is 117%.

As for `NC(=O)c1cc(-c2ccccc2)sc1NC(=O)CCl` [6-M14, 2-(2-chloroacetamido)-5-phenylthiophene-3-carboxamide], the viability at 48 h, 25 µM was 0.446%. Under `COc1ccc(CN(C)C(=O)CCl)cc1` [6-M15, 2-chloro-N-[(4-methoxyphenyl)methyl]-N-methylacetamide] stands 0.805%; under `O=C(CCl)NCCc1ccc(Cl)cc1Cl` [6-M16, 2-chloro-N-[2-(2,4-dichlorophenyl)ethyl]acetamide], 1.06%. In the case of `O=CN1CCN(C(=O)CCl)CC1` [6-M17, 4-(2-chloroacetyl)piperazine-1-carbaldehyde] it was 2.22%; in that of `CC(Cl)C(=O)N(CCC#N)c1ccccc1` (stereo not shown) [6-M18, 2-chloro-N-(2-cyanoethyl)-N-phenylpropanamide], 105%.

Regarding `O=C(CCl)N1CCCC1c1ccccc1` (stereo not shown) [6-M19, 2-chloro-1-(2-phenylpyrrolidin-1-yl)ethan-1-one], the viability at 48 h, 25 µM was 0.923%.

With `O=C(CCl)N1CC2CCC(C1)O2` [6-M20, 2-chloro-1-{8-oxa-3-azabicyclo[3.2.1]octan-3-yl}ethan-1-one], the viability at 48 h, 25 µM came to 1.12%. In the case of `CC(c1cccs1)N(C)C(=O)CCl` (stereo not shown) [6-M21, 2-chloro-N-methyl-N-[1-(thiophen-2-yl)ethyl]acetamide], the viability at 48 h, 25 µM was 0.384%.
